# Results from article PMC8648872, “A host-directed macrocyclic peptide therapeutic for MDR gram negative bacterial infections” (Scientific Reports, 2021).
# Where a SMILES comes first, the peptide text is derived from it. Bridges are numbered along the chain shown (N, C = ends).
# Columns and labels:
# neutrophils = assay: Neutrophil recruitment (peritoneal lavage and blood); format: in vivo, BALB/c mice
# Description: Blood, peritoneal lavage fluid, and spleen homogenates were obtained from mice following by CO2 euthanasia. Citrate-anti-coagulated blood was collected by aseptic cardiac puncture. Peritoneal lavage was performed by injecting 3 ml of PBS into the peritoneal cavity, massaging the abdomen, and then collecting fluid aseptically through a minor incision in the abdominal wall. Spleen was surgically removed and homogenized in sterile PBS using Polytron PT10-35 homogenizer. Samples were serially diluted and plated in triplicate on TSA plates, incubated overnight at 37 °C and colonies counted.
# EDTA-anticoagulated blood was collected aseptically by terminal cardiac puncture and analyzed for complete blood cell count using an Element HT5 hematology analyzer (Heska). Blood plasma and clarified peritoneal lavage were prepared by two-step centrifugation described previously. Plasma cytokine levels were quantified using a mouse-specific MILLIPLEX MAP kit (Millipore Cat# MCYTMAG-70K) as described.
# RAW 264.7 macrophages [1] = assay: Phagocytosis assay, RAW 264.7 macrophages with live Kp-1705; format: cell-based, mouse; conditions: RAW 264.7 cells, live Kp-1705, MOI 50:1, 0–10 µg/ml peptide, 30 min, 37 °C
# Description: (§1) Mouse RAW 264.7 macrophages (RAW cells; ATCC, TIB-71) were grown in Dulbecco’s Modified Eagle Medium (DMEM) with 10% heat-inactivated fetal bovine serum (HI-FBS) with 100 U/ml penicillin/streptomycin, and suspended to 2–3 × 10^6 cells/ml in fresh media before use.
# Kp-1705 was grown overnight, harvested by centrifugation, washed twice, resuspended in Hank’s Balanced Salt Solution (HBSS), and adjusted to a density of 2.5 × 10^8 CFU/ml. Bacteria were pre-incubated with varied concentrations of MTD12813 at room temperature for 30 min, and incubated (MOI 50:1) with RAW cells (2.5 × 10^6 cell/ml) with orbital shaking at 37 °C for 30 min. Cytospin preparations of 100 µl (2.5 × 10^5 RAW cells/slide) samples were then prepared, fixed with methanol, and stained with hematoxylin and eosin (H & E). Slides were viewed at 100× and 50 RAW cells selected from random fields were manually counted for number of cell associated bacteria. All samples were run in duplicate and experiments performed twice.
# RAW 264.7 macrophages [2] = assay: TNF release by LPS-stimulated RAW 264.7 cells; format: cell-based, mouse; conditions: RAW 264.7, 5 ng/ml LPS, 2 h, ELISA
# Description: as §1
# RAW cells were seeded into 48-well tissue culture plates at 1–1.5 × 10^5 cells/well and allowed to adhere overnight. Cells were washed twice and suspended in DMEM with 1% FBS with 0–5 µg/ml of MTD12813 immediately followed by addition of 5 ng/ml (25 EU/ml) of E. coli 0111:B4 LPS (Sigma L4391). Plates were incubated for 2 h at 37 °C in 5% CO2. Well contents were removed, clarified by centrifugation, and supernatants frozen at − 80 °C. Supernatant TNF was quantified by mouse TNF ELISA (Invitrogen, Cat #BMS607-3).
# [3] = Peptide stability in human serum; format: in vitro ADME; conditions: 90% (vol/vol) human serum, 37 °C, C18 RP-UPLC with PDA detector, read-out: peptide remaining intact
# Description: (§2) MTD12813 (final concentration of 100 µg/ml) was added to either 90% human EDTA plasma or 90% human serum and incubated at 37 °C for 48 h. Samples were processed by addition of 10% HOAc and 5% ACN (final concentrations) at time 0 and 48 h, and MTD12813 was quantified by C18 RP-HLPC on an Acquity H-Class UPLC with an analytical PDA detector using Empower 3 software (Waters). All samples were performed with technical replicates and analyzed by UPLC in duplicate and the experiment repeated once. […] A time 0 h sample was collected, and the remaining suspension incubated at 37 °C for 24 h. Samples were processed by addition of 5% formic acid/5% acetonitrile, vortexed, and clarified at 22,000×g for 10 min. Supernatant MTD12813 was then quantified by LC–MS/MS as described in PK section above. All samples were performed with technical replicates and analyzed by LC–MS/MS in duplicate.
# [4] = Peptide stability with log-phase Kp-1705 (bacterial proteases); format: in vitro ADME, K. pneumoniae; conditions: suspension of log-phase Kp-1705 bacteria, log-phase Kp-1705 (5 × 10^7 CFU/ml), 50 mM HEPES pH 7.4, 37 °C, LC–MS/MS, read-out: MTD12813 found intact
# Description: as §2
# [5] = Peptide stability with log-phase E. coli ATCC-BAA-2340 (bacterial proteases); format: in vitro ADME; conditions: suspension of log-phase E. coli ATCC-BAA-2340 bacteria, log-phase E. coli ATCC-BAA-2340, 50 mM HEPES, 37 °C, LC–MS/MS, read-out: MTD12813 found intact
# Description: as §2
smiles,measurement,setting,value
"CC[C@H](C)[C@@H]1NC(=O)[C@@H]2CSSC[C@H](NC(=O)[C@H]([C@@H](C)CC)NC(=O)[C@@H]3CSSC[C@H](NC1=O)C(=O)N[C@@H](C(C)C)C(=O)NCC(=O)N[C@@H](CCCNC(=N)N)C(=O)NCC(=O)N3)C(=O)N[C@@H](C(C)C)C(=O)N[C@@H](CCCNC(=N)N)C(=O)N[C@@H](CCCNC(=N)N)C(=O)N[C@@H](CCCNC(=N)N)C(=O)N2 [MTD12813] (cyclo(CICVGRGCICVRRR); disulfide 1-10, 3-8)",PLF neutrophils versus saline,"neutrophils; Kp-1705 infected mice, 1.25 mg/kg i.p. 1 h p.i., 24 h, P = 0.0048",threefold increase
same,blood neutrophils,"neutrophils; Kp-1705 infected mice, 1.25 mg/kg i.p. 1 h p.i., peak at ca. 2 h p.i.",transient peripheral blood neutrophilia
same,PLF neutrophil numbers in sham-infected mice,"neutrophils; sham-infected mice, 24 h after peptide delivery",no increase in neutrophil numbers
same,concentration of maximal phagocytic activity,RAW 264.7 macrophages [1],0.313 µg/mL
same,concentration for 50% TNF suppression relative to RTD-1,RAW 264.7 macrophages [2],ca. fourfold lower concentration than RTD-1
same,"remaining at 48 h, 100 µg/ml",[3],> 95%
same,"remaining at 24 h, 1.25 µg/ml",[4],72.4 ± 0.93%
same,"remaining at 24 h, 1.25 µg/ml",[5],81.3 ± 2.1%
